Source: US8420345B2, “Method for identifying at least two groups of microorganisms” (Biomerieux, priority 2006, dated 2013)

How the values were obtained:
[1] = tested on: the other serotypes (salmonella); experiment: Example 3: esterase substrate preference, conclusion from table 4; type: cell-based; conditions: coloration intensities being stronger for this substrate
Protocol: (§1) The media thus constituted were distributed into Petri dishes.
(§2) Various salmonella serotypes were inoculated, using a 10 μl calibrated loop, onto each medium, using calibrated suspensions of 0.5 McFarland. All the cultures were incubated for 24 h at 37° C.
(§3) The growth and coloration results obtained at 24 h of incubation are given in table 3, in which G signifies growth, C signifies color, I signifies colorless, In signifies coloration intensity, the sign ++ signifies very good growth, the sign + signifies good growth of the strain, the sign +/− signifies moderate growth of the strain and the sign − signifies lack of growth of the strain. 1 corresponds to a weak coloration intensity, 2 corresponds to moderate and 3 corresponds to strong.
As a result of this, a medium containing these two substrates of the same enzymatic activity makes it possible to obtain colored colonies for the various salmonella serotypes, and to separate the Dublin serotype from the other salmonella serotypes and from bacteria not expressing esterase.

[2] = tested on: S. enteritidis serotype Dublin; experiment: Example 3: colony color, coloration intensity and growth on Columbia agar with esterase substrates; type: cell-based; conditions: X—C8 versus Magenta-C8
Protocol: as §1, §2, §3

Row | SMILES | preferential hydrolysis by esterase activity [1] | specificity of hydrolysis by esterase activity [2]
1 | CCCCCCCC(=O)Oc1c[nH]c2cc(Cl)c(Br)cc12 [Magenta-C8, 5-Bromo-6-Chloro-3-Indoxyl Octanoate] | preferentially hydrolyze Magenta-C8 | 
2 | CCCCCCCC(=O)Oc1c[nH]c2ccc(Br)c(Cl)c12 [X—C8, 5-Bromo-4-Chloro-3-Indoxyl Octanoate] |  | hydrolyzes X—C8 more specifically than Magenta-C8
